The record followed here is patent publication US10844032B2, “Substituted benzofuran, benzothiophene and indole Mcl-1 inhibitors” (Vanderbilt University, priority 2012, dated 2020).

In general, pKi refers to the negative decadic logarithm of the Ki, by convention in mol/L.

This experiment has as its target recombinant Mcl-1 (residues 172-327) (Homo sapiens (Human), UniProt Q07820). The experiment is described as follows: Bak peptide fluorescence polarization anisotropy competition assay, Mcl-1. As to conditions: read-out: Ki for inhibition of Mcl-1. In kind it is binding. (In general: Fluorescence polarisation rises when a labelled molecule tumbles more slowly, as on binding a larger partner.)

Where [1] appears, read: Table 2, Ki range, FITC-Bak peptide 10 nM, Mcl-1 14 nM.

The structures appear in SMILES notation. pKi: −log10 of the molar value. Like-named read-outs stand apart in the source and are kept apart here. A value given as a limit tells only on which side of the number the result lay.

Chain of recombinant Mcl-1 (residues 172-327) (Q07820 172-327): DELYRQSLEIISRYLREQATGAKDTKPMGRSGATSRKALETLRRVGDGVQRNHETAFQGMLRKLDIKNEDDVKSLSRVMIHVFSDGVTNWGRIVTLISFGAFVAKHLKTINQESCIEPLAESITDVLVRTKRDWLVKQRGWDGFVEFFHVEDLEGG

Regarding `Cc1cc(OCCCc2c(C(=O)NS(=O)(=O)CCNC(=O)CC3CCCCC3)[nH]c3ccccc23)cc(C)c1Cl` [Example 152, 3-(3-(4-chloro-3,5-dimethylphenoxy)propyl)-N-((2-(2-cyclohexylacetamido)ethyl)sulfonyl)-1H-indole-2-carboxamide], the negative-log Ki (pKi) was 5.00 to 6.00.

With `Cc1cc(OCCCc2c(C(=O)NS(=O)(=O)CCNC(=O)c3ccccc3F)[nH]c3ccccc23)cc(C)c1Cl` [Example 160, 3-(3-(4-chloro-3,5-dimethylphenoxy)propyl)-N-((2-(2-fluorobenzamido)ethyl)sulfonyl)-1H-indole-2-carboxamide], the negative logarithm of the Ki (pKi) was 6.30 to 6.52.

For the compound `Cc1ccc(C(=O)NCCS(=O)(=O)NC(=O)c2[nH]c3ccccc3c2CCCOc2cc(C)c(Cl)c(C)c2)o1` [Example 157, 3-(3-(4-chloro-3,5-dimethylphenoxy)propyl)-N-((2-(5-methylfuran-2-carboxamido)ethyl)sulfonyl)-1H-indole-2-carboxamide], the negative logarithm of the Ki (pKi) is 6.52 to 7.00.

As for `Cc1cc(OCCCc2c(C(=O)NS(C)(=O)=O)[nH]c3cc(C(F)(F)F)ccc23)cc(C)c1Cl` [Example 78, 3-(3-(4-chloro-3,5-dimethylphenoxy)propyl)-N-(methylsulfonyl)-6-(trifluoromethyl)-1H-indole-2-carboxamide], the pKi is 6.30 to 6.52.

Consider `Cc1cc(OCCCc2c(C(=O)NS(C)(=O)=O)[nH]c3cccc(Cl)c23)cc(C)c1Cl` [Example 51, 4-chloro-3-(3-(4-chloro-3,5-dimethylphenoxy)propyl)-N-(methylsulfonyl)-1H-indole-2-carboxamide], for which, under setting [1], the pKi is not below 7.00.

In the case of `Cc1cc(OCCCc2c(C(=O)NS(=O)(=O)CCNC(=O)c3ccoc3)[nH]c3ccccc23)cc(C)c1Cl` [Example 158, 3-(3-(4-chloro-3,5-dimethylphenoxy)propyl)-N-((2-(furan-3-carboxamido)ethyl)sulfonyl)-1H-indole-2-carboxamide], the pKi was 6.52 to 7.00.

Consider `O=C(O)c1sc2ccccc2c1CCc1cccc2ccccc12` [Example 64, 3-(2-(naphthalen-1-yl)ethyl)benzo[b]thiophene-2-carboxylic acid], for which the negative logarithm of the Ki (pKi) is 5.00 to 6.00.

Regarding `Cc1cc(OCCCc2c(C(=O)NS(=O)(=O)CCc3ccccc3)[nH]c3ccccc23)cc(C)c1Cl` [Example 140, 3-(3-(4-chloro-3,5-dimethylphenoxy)propyl)-N-(phenethylsulfonyl)-1H-indole-2-carboxamide], the negative logarithm of the Ki (pKi) is 6.00 to 6.30.

With `Cc1cc2nnnn2cc1-c1cccc2c(CCCOc3cc(C)c(Cl)c(C)c3)c(C(=O)NS(=O)(=O)c3ccccc3)[nH]c12` [Example 300, 3-(3-(4-chloro-3,5-dimethylphenoxy)propyl)-7-(7-methyltetrazolo[1,5-a]pyridin-6-yl)-N-(phenylsulfonyl)-1H-indole-2-carboxamide], under setting [1], the negative logarithm of the Ki (pKi) is not below 7.00.

`Cc1cc(OCCCc2c(C(=O)NS(=O)(=O)CCNS(=O)(=O)c3ccccc3)[nH]c3ccccc23)cc(C)c1Cl` [Example 146, 3-(3-(4-chloro-3,5-dimethylphenoxy)propyl)-N-((2-(phenylsulfonamido)ethyl)sulfonyl)-1H-indole-2-carboxamide]: the pKi was 6.52 to 7.00.

In the case of `Cc1cc(OCCCc2c(C(=O)NS(=O)(=O)CCCNC3CCCCC3)[nH]c3ccccc23)cc(C)c1Cl` [Example 145, 3-(3-(4-chloro-3,5-dimethylphenoxy)propyl)-N-((3-(cyclohexylamino)propyl)sulfonyl)-1H-indole-2-carboxamide], the pKi is 5.00 to 6.00.

As to `Cc1cc(OCCCc2c(C(=O)NS(=O)(=O)CCOc3ccccc3)[nH]c3ccccc23)cc(C)c1Cl` [Example 141, 3-(3-(4-chloro-3,5-dimethylphenoxy)propyl)-N-((2-phenoxyethyl)sulfonyl)-1H-indole-2-carboxamide], the negative logarithm of the Ki (pKi) was 6.30 to 6.52.

Consider `Cc1cc(OCCCc2c(C(=O)NS(=O)(=O)c3ccc(-c4ccccc4)cc3)[nH]c3ccccc23)cc(C)c1Cl` [Example 139, N-([1,1′-biphenyl]-4-ylsulfonyl)-3-(3-(4-chloro-3,5-dimethylphenoxy)propyl)-1H-indole-2-carboxamide], for which the negative logarithm of the Ki (pKi) is 6.30 to 6.52.

In the case of `Cc1cc(OCCCc2c(C(=O)NS(=O)(=O)c3cccc(Br)c3)[nH]c3cc(Cl)ccc23)cc(C)c1Cl` [Example 218, N-((3-bromophenyl)sulfonyl)-6-chloro-3-(3-(4-chloro-3,5-dimethylphenoxy)propyl)-1H-indole-2-carboxamide], the negative logarithm of the Ki (pKi) is 6.52 to 7.00.

For `Cc1cc(OCCCc2c(C(=O)NS(=O)(=O)CCNC(=O)c3cccn3-c3ccccc3)[nH]c3ccccc23)cc(C)c1Cl` [Example 172, 3-(3-(4-chloro-3,5-dimethylphenoxy)propyl)-N-((2-(1-phenyl-1H-pyrrole-2-carboxamido)ethyl)sulfonyl)-1H-indole-2-carboxamide], the pKi was 6.52 to 7.00.

Turning to `O=C(O)c1sc2c(-c3ccccc3)cccc2c1CCCOc1cccc2ccccc12` [Example 11, 3-(3-(naphthalen-1-yloxy)propyl)-7-phenylbenzo[b]thiophene-2-carboxylic acid], the pKi was 6.00 to 6.30.

Consider `Cc1cc(OCCCc2c(C(=O)NS(=O)(=O)CCNC(=O)c3ccc4ccccc4c3)[nH]c3ccccc23)cc(C)c1Cl` [Example 162, N-((2-(2-naphthamido)ethyl)sulfonyl)-3-(3-(4-chloro-3,5-dimethylphenoxy)propyl)-1H-indole-2-carboxamide], for which the pKi is 6.30 to 6.52.

On to `Cc1cc(OCCCc2c(C(=O)NS(=O)(=O)c3ccccc3)[nH]c3c(-c4ccoc4)cccc23)cc(C)c1Cl` [Example 87, 3-(3-(4-chloro-3,5-dimethylphenoxy)propyl)-7-(furan-3-yl)-N-(phenylsulfonyl)-1H-indole-2-carboxamide], for which the pKi was 6.52 to 7.00.

With `Cc1cc(OCCCc2c(C(=O)NS(=O)(=O)CCNC(=O)c3nccn3Cc3ccccc3)[nH]c3ccccc23)cc(C)c1Cl` [Example 173, N-((2-(1-benzyl-1H-imidazole-2-carboxamido)ethyl)sulfonyl)-3-(3-(4-chloro-3,5-dimethylphenoxy)propyl)-1H-indole-2-carboxamide], the negative-log Ki (pKi) is 6.00 to 6.30.

Turning to `Cc1cc(OCCCc2c(C(=O)NS(=O)(=O)c3ccccc3)[nH]c3c(-c4c(C)noc4C)cccc23)cc(C)c1Cl` [Example 88, 3-(3-(4-chloro-3,5-dimethylphenoxy)propyl)-7-(3,5-dimethylisoxazol-4-yl)-N-(phenylsulfonyl)-1H-indole-2-carboxamide], the negative-log Ki (pKi) under setting [1] was not below 7.00.

Regarding `CC(=O)NCCS(=O)(=O)NC(=O)c1[nH]c2ccccc2c1CCCOc1cc(C)c(Cl)c(C)c1` [Example 198, N-((2-acetamidoethyl)sulfonyl)-3-(3-(4-chloro-3,5-dimethylphenoxy)propyl)-1H-indole-2-carboxamide], the pKi was 6.00 to 6.30.

On to `Cc1ccc(OCCCc2c(C(=O)NS(C)(=O)=O)[nH]c3ccccc23)cc1` [Example 33, N-(methylsulfonyl)-3-(3-(p-tolyloxy)propyl)-1H-indole-2-carboxamide], for which the pKi is 4.30 to 5.00.

Consider `CS(=O)(=O)NC(=O)c1[nH]c2ccccc2c1CCCOc1ccc(Cl)cc1` [Example 35, 3-(3-(4-chlorophenoxy)propyl)-N-(methylsulfonyl)-1H-indole-2-carboxamide], for which the negative-log Ki (pKi) was 4.30 to 5.00.

For `Cc1cc(OCCCc2c(C(=O)NS(=O)(=O)CC3CCN(C(=O)c4cccn4C)CC3)[nH]c3ccccc23)cc(C)c1Cl` [Example 211, 3-(3-(4-chloro-3,5-dimethylphenoxy)propyl)-N-(((1-(1-methyl-1H-pyrrole-2-carbonyl)piperidin-4-yl)methyl)sulfonyl)-1H-indole-2-carboxamide], the pKi is 6.30 to 6.52.

`CC(=O)N1CCC(CS(=O)(=O)NC(=O)c2[nH]c3ccccc3c2CCCOc2cc(C)c(Cl)c(C)c2)CC1` [Example 210, N-(((1-acetylpiperidin-4-yl)methyl)sulfonyl)-3-(3-(4-chloro-3,5-dimethylphenoxy)propyl)-1H-indole-2-carboxamide]: the negative-log Ki (pKi) is 6.00 to 6.30.

On to `Cc1cc(OCCCc2c(C(=O)NS(=O)(=O)c3ccccc3)[nH]c3c(-c4c(COCCN(C)C)nn(C)c4C)cccc23)cc(C)c1Cl` [Example 308, 3-(3-(4-chloro-3,5-dimethylphenoxy)propyl)-7-(3-((2-(dimethylamino)ethoxy)methyl)-1,5-dimethyl-1H-pyrazol-4-yl)-N-(phenylsulfonyl)-1H-indole-2-carboxamide], for which, under setting [1], the negative logarithm of the Ki (pKi) was not below 7.00.

For `Cc1cc(OCCCc2c(C(=O)NS(C)(=O)=O)[nH]c3c(C)c(Cl)ccc23)cc(C)c1Cl` [Example 119, 6-chloro-3-(3-(4-chloro-3,5-dimethylphenoxy)propyl)-7-methyl-N-(methylsulfonyl)-1H-indole-2-carboxamide], the pKi is 6.52 to 7.00.

With `CS(=O)(=O)NC(=O)c1[nH]c2cc(C(F)(F)F)ccc2c1CCCOc1cccc2ccccc12` [Example 79, N-(methylsulfonyl)-3-(3-(naphthalen-1-yloxy)propyl)-6-(trifluoromethyl)-1H-indole-2-carboxamide], the pKi was 6.30 to 6.52.

As to `Cc1cc(OCCCc2c(C(=O)NS(=O)(=O)CCNC(=O)c3cncs3)[nH]c3ccccc23)cc(C)c1Cl` [Example 189, N-(2-(N-(3-(3-(4-chloro-3,5-dimethylphenoxy)propyl)-1H-indole-2-carbonyl)sulfamoyl)ethyl)thiazole-5-carboxamide], the pKi was 6.00 to 6.30.

Consider `Cc1cc(OCCCc2c(C(=O)NS(=O)(=O)CCNC(=O)c3cccn3Cc3ccccc3)[nH]c3cc(Cl)ccc23)cc(C)c1Cl` [Example 241, N-((2-(1-benzyl-1H-pyrrole-2-carboxamido)ethyl)sulfonyl)-6-chloro-3-(3-(4-chloro-3,5-dimethylphenoxy)propyl)-1H-indole-2-carboxamide], for which the pKi was 6.52 to 7.00.

For the compound `Cc1cc(OCCCc2c(C(=O)NS(=O)(=O)c3ccncc3)[nH]c3ccccc23)cc(C)c1Cl` [Example 134, 3-(3-(4-chloro-3,5-dimethylphenoxy)propyl)-N-(pyridin-4-ylsulfonyl)-1H-indole-2-carboxamide], the pKi was 6.30 to 6.52.

On to `CS(=O)(=O)NC(=O)c1[nH]c2cc(Cl)ccc2c1CCCOc1cccc2ccccc12` [Example 52, 6-chloro-N-(methylsulfonyl)-3-(3-(naphthalen-1-yloxy)propyl)-1H-indole-2-carboxamide], for which the negative logarithm of the Ki (pKi) was 6.52 to 7.00.
